# Legend:
# Format in all cases: cell-based
# [1] = test system: E. coli BL21; assay: MIC against Gram-negative bacteria: E. coli BL21
# Outline: (§1)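 Antibacterial activity of purified human EGF domain proteins: two-fold concentration series, triplicate wells, LB broth, 5×10^5 CFU/mL bacteria, 37° C shaking incubation. The lowest concentration without growth defines the MIC.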
# [2] = test system: Citrobacter diversus; assay: MIC against Gram-negative bacteria: Citrobacter diversus; settings: for MIC against C. diversus: Citrobacter diversus
# Outline: as §1
# [3] = test system: Klebsiella pneumonia; assay: MIC against Gram-negative bacteria: Klebsiella pneumonia; settings: for MIC against K. pneumonia: Klebsiella pneumonia
# Outline: as §1
# [4] = test system: Pseudomonas aeruginosa; assay: MIC against Gram-negative bacteria: Pseudomonas aeruginosa; settings: for MIC against P. aeruginosa: Pseudomonas aeruginosa
# Outline: as §1
# [5] = test system: Enterobacter cloacae; assay: MIC against Gram-negative bacteria: Enterobacter cloacae; settings: for MIC against E. cloacae: Enterobacter cloacae
# Outline: as §1
# [6] = test system: Moraxella catarrhalis; assay: MIC against Gram-negative bacteria: Moraxella catarrhalis; settings: for MIC against M. catarrhalis: Moraxella catarrhalis
# Outline: as §1
# [7] = test system: Proteus vulgaris; assay: MIC against Gram-negative bacteria: Proteus vulgaris; settings: for MIC against P. vulgaris: Proteus vulgaris
# Outline: as §1
# [8] = test system: Proteus mirabilis; assay: MIC against Gram-negative bacteria: Proteus mirabilis; settings: for MIC against P. mirabilis: Proteus mirabilis
# Outline: as §1
# [9] = test system: Serratia marcescens; assay: MIC against Gram-negative bacteria: Serratia marcescens; settings: for MIC against S. marcescens: Serratia marcescens
# Outline: as §1
# [10] = test system: E. coli DH5α; assay: Antibacterial activity: MIC and growth curve against E. coli DH5α in 96-well plate; settings: minimal inhibitory concentration against E. coli DH5α; 96-well plate, 5×10^5 CFU/mL, 37° C., judged after 8 h
# Outline: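 Log-phase DH5α (OD600 about 0.5, 37° C, 185 rpm in LB) was pelleted, resuspended in fresh LB and seeded at 5×10^5 CFU/mL with recombinant protein at 50, 25 and 12.5 μg/mL (two-fold series), in triplicate. Plates were shaken at 175 rpm, 37° C, and OD600 was read every 30 min. MIC was the lowest concentration with no growth.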
# [11] = test system: Aeromonas hydrophila; assay: MIC against Gram-negative bacteria: Aeromonas hydrophila; settings: for MIC against A. hydrophila: Aeromonas hydrophila
# Outline: as §1
# [12] = 10 h cultivation at 37° C., 5×10^5 CFU/mL, two-fold serial dilution
# [13] = E. coli BL21, 96-well plate, 5×10^5 CFU/mL, 37° C., 10 h
# [14] = 96-well plate, 5×10^5 CFU/mL, 37° C., 10 h
# [15] = E. coli BL21, 10 h cultivation at 37° C.
# [16] = C. diversus, 10 h cultivation at 37° C.
# [17] = K. pneumonia, 10 h cultivation at 37° C.
# [18] = P. aeruginosa, 10 h cultivation at 37° C.
# [19] = E. cloacae, 10 h cultivation at 37° C.
# [20] = M. catarrhalis, 10 h cultivation at 37° C.
# [21] = P. vulgaris, 10 h cultivation at 37° C.
# [22] = P. mirabilis, 10 h cultivation at 37° C.
# [23] = S. marcescens, 10 h cultivation at 37° C.
# [24] = A. hydrophila, 10 h cultivation at 37° C.
# [25] = E. coli BL21, 10 h cultivation at 37° C., 5×10^5 CFU/mL
# [26] = C. diversus, 10 h cultivation at 37° C., 5×10^5 CFU/mL
# [27] = K. pneumonia, 10 h cultivation at 37° C., 5×10^5 CFU/mL
# [28] = P. aeruginosa, 10 h cultivation at 37° C., 5×10^5 CFU/mL
# [29] = E. cloacae, 10 h cultivation at 37° C., 5×10^5 CFU/mL
# [30] = M. catarrhalis, 10 h cultivation at 37° C., 5×10^5 CFU/mL
# [31] = P. vulgaris, 10 h cultivation at 37° C., 5×10^5 CFU/mL
# [32] = P. mirabilis, 10 h cultivation at 37° C., 5×10^5 CFU/mL
# [33] = S. marcescens, 10 h cultivation at 37° C., 5×10^5 CFU/mL
# [34] = A. hydrophila, 10 h cultivation at 37° C., 5×10^5 CFU/mL
substance,measurement,setting,value
PRT1102 (TIGSCGKNSCQHGGICHQDPIYPVCICPAGYAGRFCE; listed as Homo sapiens),MIC E. coli BL21,[1]; [12],12.5 µg/mL
same,MIC C. diversus,[2]; [12],12.5 µg/mL
same,MIC K. pneumonia,[3]; [12],12.5 µg/mL
same,MIC P. aeruginosa,[4]; [12],12.5 µg/mL
same,MIC E. cloacae,[5]; [12],12.5 µg/mL
same,MIC M. catarrhalis,[6]; [12],12.5 µg/mL
same,MIC P. vulgaris,[7]; [12],12.5 µg/mL
same,MIC P. mirabilis,[8]; [12],12.5 µg/mL
same,MIC S. marcescens,[9]; [12],25 µg/mL
same,MIC,[10],12.5 µg/mL
same,MIC A. hydrophila,[11]; [12],12.5 µg/mL
PRT1058 (DIDECQLGEHSCGENASCTNTEGGYTCMCAGRLSEPGLICP; listed as Homo sapiens),MIC E. coli BL21,[1]; [12],25 µg/mL
same,MIC C. diversus,[2]; [12],12.5 µg/mL
same,MIC K. pneumonia,[3]; [12],25 µg/mL
same,MIC P. aeruginosa,[4]; [12],50 µg/mL
same,MIC E. cloacae,[5]; [12],12.5 µg/mL
same,MIC M. catarrhalis,[6]; [12],50 µg/mL
same,MIC P. vulgaris,[7]; [12],50 µg/mL
same,MIC P. mirabilis,[8]; [12],12.5 µg/mL
same,MIC S. marcescens,[9]; [12],12.5 µg/mL
same,MIC,[10],12.5 µg/mL
same,MIC A. hydrophila,[11]; [12],50 µg/mL
PRT1312 (LQPVCTPPCAPEAVCRAGNSCECSLGYEGDGRVCT; listed as Homo sapiens),MIC against E. coli BL21,[1]; [13],12.5 µg/mL
same,MIC against C. diversus,[2]; [14],50 µg/mL
same,MIC against K. pneumonia,[3]; [14],12.5 µg/mL
same,MIC against P. aeruginosa,[4]; [14],50 µg/mL
same,MIC against E. cloacae,[5]; [14],50 µg/mL
same,MIC against M. catarrhalis,[6]; [14],12.5 µg/mL
same,MIC against P. vulgaris,[7]; [14],12.5 µg/mL
same,MIC against P. mirabilis,[8]; [14],50 µg/mL
same,MIC against S. marcescens,[9]; [14],50 µg/mL
same,MIC,[10],50 µg/mL
same,MIC against A. hydrophila,[11]; [14],12.5 µg/mL
PRT650 (DIDECQQGNLCVNGQCKNTEGSFRCTCGQGYQLSAAKDQCE; listed as Homo sapiens),MIC E. coli BL21,[1]; [14],25 µg/mL
same,MIC C. diversus,[2]; [14],12.5 µg/mL
same,MIC K. pneumonia,[3]; [14],12.5 µg/mL
same,MIC P. aeruginosa,[4]; [14],50 µg/mL
same,MIC E. cloacae,[5]; [14],50 µg/mL
same,MIC M. catarrhalis,[6]; [14],25 µg/mL
same,MIC P. vulgaris,[7]; [14],12.5 µg/mL
same,MIC P. mirabilis,[8]; [14],50 µg/mL
same,MIC S. marcescens,[9]; [14],50 µg/mL
same,MIC,[10],12.5 µg/mL
same,MIC A. hydrophila,[11]; [14],25 µg/mL
PRT1105 (EIDECWSQPCLNGATCQDALGAYFCDCAPGFLGDHCE; listed as Homo sapiens),MIC E. coli BL21,[1]; [12],25 µg/mL
same,MIC C. diversus,[2]; [12],12.5 µg/mL
same,MIC K. pneumonia,[3]; [12],12.5 µg/mL
same,MIC P. aeruginosa,[4]; [12],50 µg/mL
same,MIC E. cloacae,[5]; [12],50 µg/mL
same,MIC M. catarrhalis,[6]; [12],25 µg/mL
same,MIC P. vulgaris,[7]; [12],12.5 µg/mL
same,MIC P. mirabilis,[8]; [12],50 µg/mL
same,MIC S. marcescens,[9]; [12],50 µg/mL
same,MIC,[10],12.5 µg/mL
same,MIC A. hydrophila,[11]; [12],25 µg/mL
PRT677 (ETDECRLNQNICGHGECVPGPPDYSCHCNPGYRSHPQHRYCV; listed as Homo sapiens),MIC E. coli BL21,[1]; [14],25 µg/mL
same,MIC C. diversus,[2]; [14],25 µg/mL
same,MIC K. pneumonia,[3]; [14],50 µg/mL
same,MIC P. aeruginosa,[4]; [14],12.5 µg/mL
same,MIC E. cloacae,[5]; [14],25 µg/mL
same,MIC M. catarrhalis,[6]; [14],25 µg/mL
same,MIC P. vulgaris,[7]; [14],12.5 µg/mL
same,MIC P. mirabilis,[8]; [14],50 µg/mL
same,MIC S. marcescens,[9]; [14],50 µg/mL
same,MIC,[10],50 µg/mL
same,MIC A. hydrophila,[11]; [14],12.5 µg/mL
PRT967 (ARDACESQPCRAGGTCSSDGMGFHCTCPPGVQGRQCE; listed as Homo sapiens),MIC,[1]; [15],12.5 µg/mL
same,MIC,[2]; [16],12.5 µg/mL
same,MIC,[3]; [17],25 µg/mL
same,MIC,[4]; [18],12.5 µg/mL
same,MIC,[5]; [19],12.5 µg/mL
same,MIC,[6]; [20],25 µg/mL
same,MIC,[7]; [21],25 µg/mL
same,MIC,[8]; [22],12.5 µg/mL
same,MIC,[9]; [23],12.5 µg/mL
same,MIC,[10],50 µg/mL
same,MIC,[11]; [24],25 µg/mL
PRT437 (DEDECAAGNPCSHSCHNAMGTYYCSCPKGLTIAADGRTCQ; listed as Homo sapiens),MIC,[1]; [25],12.5 µg/mL
same,MIC,[2]; [26],50 µg/mL
same,MIC,[3]; [27],25 µg/mL
same,MIC,[4]; [28],50 µg/mL
same,MIC,[5]; [29],12.5 µg/mL
same,MIC,[6]; [30],25 µg/mL
same,MIC,[7]; [31],25 µg/mL
same,MIC,[8]; [32],12.5 µg/mL
same,MIC,[9]; [33],50 µg/mL
same,MIC,[10],50 µg/mL
same,MIC,[11]; [34],25 µg/mL
PRT1301 (DNDDCVAHKCRHGAQCVDTINGYTCTCPQGFSGPFCE; listed as Homo sapiens),MIC against E. coli BL21,[1]; [13],12.5 µg/mL
same,MIC against C. diversus,[2]; [14],12.5 µg/mL
same,MIC against K. pneumonia,[3]; [14],12.5 µg/mL
same,MIC against P. aeruginosa,[4]; [14],12.5 µg/mL
same,MIC against E. cloacae,[5]; [14],50 µg/mL
same,MIC against M. catarrhalis,[6]; [14],50 µg/mL
same,MIC against P. vulgaris,[7]; [14],25 µg/mL
same,MIC against P. mirabilis,[8]; [14],12.5 µg/mL
same,MIC against S. marcescens,[9]; [14],50 µg/mL
same,MIC,[10],12.5 µg/mL
same,MIC against A. hydrophila,[11]; [14],25 µg/mL
PRT799 (FHACSCHNGASCSAEDGACHCTPGWTGLFCT; listed as Homo sapiens),MIC (μg/mL) E. coli BL21,[1]; [25],12.5 µg/mL
same,MIC (μg/mL) C. diversus,[2]; [26],12.5 µg/mL
same,MIC (μg/mL) K. pneumonia,[3]; [27],12.5 µg/mL
same,MIC (μg/mL) P. aeruginosa,[4]; [28],12.5 µg/mL
same,MIC (μg/mL) E. cloacae,[5]; [29],5 µg/mL
same,MIC (μg/mL) M. catarrhalis,[6]; [30],12.5 µg/mL
same,MIC (μg/mL) P. vulgaris,[7]; [31],50 µg/mL
same,MIC (μg/mL) P. mirabilis,[8]; [32],12.5 µg/mL
same,MIC (μg/mL) S. marcescens,[9]; [33],25 µg/mL
same,MIC,[10],25 µg/mL
same,MIC (μg/mL) A. hydrophila,[11]; [34],12.5 µg/mL
PRT1008 (ELDACQSQPCHNHGTCTPKPGGFHCACPPGFVGLRCE; listed as Homo sapiens),MIC,[1]; [15],12.5 µg/mL
same,MIC,[2]; [16],50 µg/mL
same,MIC,[3]; [17],12.5 µg/mL
same,MIC,[4]; [18],12.5 µg/mL
same,MIC,[5]; [19],50 µg/mL
same,MIC,[6]; [20],12.5 µg/mL
same,MIC,[7]; [21],50 µg/mL
same,MIC,[8]; [22],25 µg/mL
same,MIC,[9]; [23],25 µg/mL
same,MIC,[10],50 µg/mL
same,MIC,[11]; [24],12.5 µg/mL
